# Assay results from the NIST ThermoML archive (doi:10.1016/j.jct.2006.12.004).
# Numbers after ± are expanded uncertainties.
# Experiment: refractive index (Na D-line) (dimensionless)
# Details: 293.1 K; 101.33 kPa; Liquid; Standard Abbe refractometry
row,Structure (SMILES),refractive index
1,"Cc1cccc(C)c1 [1,3-dimethylbenzene]",1.4943 ± 0.0007
2,O=CN1CCOCC1 [N-formylmorpholine],1.484 ± 0.0007
3,c1ccccc1 [benzene],1.5024 ± 0.0007
4,CCCCCCC [heptane],1.3882 ± 0.0007
5,Cc1ccccc1 [toluene],1.4873 ± 0.0007
